In US20240246964A1 (Arbutus Biopharma Corporation, priority 2021, published 2024):

Tests used:
[1] = target: PD-L1 His protein / PD-1 Fc protein (Homo sapiens (Human), UniProt Q9NZQ7); test: HTRF Assay (PD-1/PD-L1 interaction); format: binding; settings: PD-L1 His 6 nM, PD-1 Fc 6 nM
human PD-L1 = human PD-L1 (Homo sapiens (Human), UniProt Q9NZQ7); test: T cell activation luciferase reporter cell culture system (T Cell Activation Assay); format: cell-based; settings: luciferase reporter assay; PD-L1 aAPC/CHO-K1 cells with PD-1 effector Jurkat T cells
Chain of human PD-L1 (Q9NZQ7 19-290): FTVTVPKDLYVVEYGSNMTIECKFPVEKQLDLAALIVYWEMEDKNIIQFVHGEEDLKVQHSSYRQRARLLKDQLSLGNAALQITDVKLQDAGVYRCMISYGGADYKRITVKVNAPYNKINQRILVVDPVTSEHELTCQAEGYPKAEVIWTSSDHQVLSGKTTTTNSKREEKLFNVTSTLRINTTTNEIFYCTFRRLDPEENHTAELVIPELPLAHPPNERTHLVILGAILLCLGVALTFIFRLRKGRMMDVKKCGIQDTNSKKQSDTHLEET

Chain of PD-L1 His protein / PD-1 Fc protein (Q9NZQ7 19-238): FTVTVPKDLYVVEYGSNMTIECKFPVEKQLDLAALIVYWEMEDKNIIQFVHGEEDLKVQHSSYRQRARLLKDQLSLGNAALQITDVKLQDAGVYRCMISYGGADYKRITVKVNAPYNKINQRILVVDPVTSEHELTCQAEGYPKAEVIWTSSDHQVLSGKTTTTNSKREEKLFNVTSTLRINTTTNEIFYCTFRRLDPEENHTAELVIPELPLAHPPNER

| Structure (SMILES) | IC50 [1] | EC50 (human PD-L1) |
| --- | --- | --- |
| COc1nc(-c2cccc(-c3ccnc(-c4ccc5c(CNC6CCS(=O)(=O)CC6)cn(C)c5c4)c3Cl)c2Cl)ccc1CNC[C@@H]1CCC(=O)N1 [Compound 43, (S)-5-((((6-(2-chloro-3-(3-chloro-2-(3-(((1,1-dioxidotetrahydro-2H-thiopyran-4-yl)amino)methyl)-1-methyl-1H-indol-6-yl)pyridin-4-yl)phenyl)-2-methoxypyridin-3-yl)methyl)amino)methyl)pyrrolidin-2-one] | 0.2 nM | 62.5 nM |
| COc1cc(-c2nccc(-c3cccc(-c4cn5cc(CNC[C@@H]6CCC(=O)N6)nc5cn4)c3Cl)c2Cl)ccc1CNC[C@@H]1CCC(=O)N1 [Example 291, (S)-5-((((6-(2-Chloro-3-(3-chloro-2-(3-methoxy-4-(((((S)-5-oxopyrrolidin-2-yl)methyl)amino)methyl)phenyl)pyridin-4-yl)phenyl)imidazo[1,2-a]pyrazin-2-yl)methyl)amino)methyl)pyrrolidin-2-one] | 1.41 nM | 376 nM |
| COc1cc(-c2nccc(-c3cccc4c3CC[C@@H]4Oc3nc(OC)c(CN4CC5(CNC(=O)C5)C4)cc3C(F)(F)F)c2Cl)cc(F)c1CN1CC2(CNC(=O)C2)C1 [Example 306, (S)-2-(4-(3-chloro-4-(1-((6-methoxy-5-((7-oxo-2,6-diazaspiro[3.4]octan-2-yl)methyl)-3-(trifluoromethyl)pyridin-2-yl)oxy)-2,3-dihydro-1H-inden-4-yl)pyridin-2-yl)-2-fluoro-6-methoxybenzyl)-2,6-diazaspiro[3.4]octan-7-one] | 0.76 nM | 361 nM |
| COc1nc(-c2cccc(-c3nccc(-c4ccc(CN5CC6(CNC(=O)C6)C5)c(OC)n4)c3Cl)c2Cl)ccc1CNC1CCN(C(C)=O)CC1 [Compound 680, 2-((2′-(3-(5-(((1-Acetylpiperidin-4-yl)amino)methyl)-6-methoxypyridin-2-yl)-2-chlorophenyl)-3′-chloro-6-methoxy-[2,4′-bipyridin]-5-yl)methyl)-2,6-diazaspiro[3.4]octan-7-one] | 0.03 nM | 26.3 nM |
| COc1nc(-c2cccc(-c3ccnc(-c4ccc5c(CN6CC7(C6)CN(C(C)=O)C7)nn(C)c5c4)c3Cl)c2Cl)ccc1CNC[C@@H]1CCC(=O)N1 [Example 308, (S)-5-((((6-(3-(2-(3-((6-Acetyl-2,6-diazaspiro[3.3]heptan-2-yl)methyl)-1-methyl-1H-indazol-6-yl)-3-chloropyridin-4-yl)-2-chlorophenyl)-2-methoxypyridin-3-yl)methyl)amino)methyl)pyrrolidin-2-one] | 0.95 nM | 24.1 nM |
| COc1nc(-c2cccc(-c3ccnc(-c4ccc(CN5CC6(C5)CN(C(C)=O)C6)c(OC(F)F)c4)c3Cl)c2Cl)ccc1CN1CC2(CNC(=O)C2)C1 [Example 662, 2-((6-(3-(2-(4-((6-Acetyl-2,6-diazaspiro[3.3]heptan-2-yl)methyl)-3-(difluoromethoxy)phenyl)-3-chloropyridin-4-yl)-2-chlorophenyl)-2-methoxypyridin-3-yl)methyl)-2,6-diazaspiro[3.4]octan-7-one] | 0.74 nM | 18.5 nM |
| COCCC(=O)N1CCC(NCc2ccc(-c3nccc(-c4cccc(-c5ccc(CNC6CCN(C(=O)CCOC)CC6)c(OC)n5)c4Cl)c3Cl)cc2OC)CC1 [Example 546, 1-(4-(((6-(2-Chloro-3-(3-chloro-2-(3-methoxy-4-(((1-(3-methoxypropanoyl)piperidin-4-yl)amino)methyl)phenyl)pyridin-4-yl)phenyl)-2-methoxypyridin-3-yl)methyl)amino)piperidin-1-yl)-3-methoxypropan-1-one] | 1.25 nM | 19.5 nM |
| COc1cc(-c2nccc(-c3cccc(-c4ccc(CNC[C@@H]5CCC(=O)N5)c(OC)n4)c3Cl)c2Cl)cnc1CNC[C@@H]1CCC(=O)N1 [Compound 23, (S)-5-((((6-(2-chloro-3-(3-chloro-5′-methoxy-6′-(((((S)-5-oxopyrrolidin-2-yl)methyl)amino)methyl)-[2,3′-bipyridin]-4-yl)phenyl)-2-methoxypyridin-3-yl)methyl)amino)methyl)pyrrolidin-2-one] | 0.1 nM | 36.3 nM |
| COc1nc(-c2cccc(-c3ccnc(-c4cc(OC)c5nc(CN6CC7(CC(O)C7)C6)nn5c4)c3Cl)c2Cl)ccc1CNC(C)C [Compound 753, 2-((6-(3-Chloro-4-(2-chloro-3-(5-((isopropylamino)methyl)-6-methoxypyridin-2-yl)phenyl)pyridin-2-yl)-8-methoxy-[1,2,4]triazolo[1,5-a]pyridin-2-yl)methyl)-2-azaspiro[3.3]heptan-6-ol] | 0.2 nM | 87 nM |
| COc1nc(-c2ccnc(-c3cccc(NC(=O)c4ccc(CNCCO)cn4)c3C)c2Cl)ccc1CNC1CCN(C(C)=O)CC1 [Example 769, N-(3-(5-(((1-Acetylpiperidin-4-yl)amino)methyl)-3′-chloro-6-methoxy-[2,4′-bipyridin]-2′-yl)-2-methylphenyl)-5-(((2-hydroxyethyl)amino)methyl)picolinamide] | 0.24 nM | 60.6 nM |
| COc1cc(-c2nccc(-c3cccc(-c4ccc(CN5CC6(CNC(=O)C6)C5)c(OC)n4)c3C)c2C)ccc1CN1CC2(CNC(=O)C2)C1 [Example 415, 2-((2-methoxy-6-(3-(2-(3-methoxy-4-((7-oxo-2,6-diazaspiro[3.4]octan-2-yl)methyl)phenyl)-3-methylpyridin-4-yl)-2-methylphenyl)pyridin-3-yl)methyl)-2,6-diazaspiro[3.4]octan-7-one] | 0.25 nM | 5100 nM |
| COc1cc(-c2nccc(-c3cccc(-c4ccc(CNC[C@@H]5CCC(=O)N5)c(OC)n4)c3Cl)c2Cl)cc(C)c1CN(C)C[C@H](C)O [Compound 118, (S)-5-((((6-(2-chloro-3-(3-chloro-2-(4-((((S)-2-hydroxypropyl)(methyl)amino)methyl)-3-methoxy-5-methylphenyl)pyridin-4-yl)phenyl)-2-methoxypyridin-3-yl)methyl)amino)methyl)pyrrolidin-2-one] | 1.6 nM | 44.1 nM |
| COc1cc(-c2nccc(-c3cccc(-c4ccc5c(OC)c(CNC[C@@H]6CCC(=O)N6)cc(Cl)c5n4)c3Cl)c2Cl)ccc1CNC[C@@H]1CCC(=O)N1 [Compound 207, (S)-5-((((8-chloro-2-(2-chloro-3-(3-chloro-2-(3-methoxy-4-(((((S)-5-oxopyrrolidin-2-yl)methyl)amino)methyl)phenyl)pyridin-4-yl)phenyl)-5-methoxyquinolin-6-yl)methyl)amino)methyl)pyrrolidin-2-one] | 7.66 nM | 118 nM |
| COc1nc(-c2cccc(-c3cncc(-c4ccc(CN5CC6(CNC(=O)C6)C5)c(OC)n4)c3Cl)c2Cl)ccc1CN1CC2(CNC(=O)C2)C1 [Compound 640, 2-((4′-Chloro-5′-(2-chloro-3-(6-methoxy-5-((7-oxo-2,6-diazaspiro[3.4]octan-2-yl)methyl)pyridin-2-yl)phenyl)-6-methoxy-[2,3′-bipyridin]-5-yl)methyl)-2,6-diazaspiro[3.4]octan-7-one] | 0.22 nM | 26.2 nM |
| COc1nc(-c2cccc(-c3nccc(-c4ccc(CN5CC6(CNC(=O)C6)C5)c(OC)n4)c3Cl)c2Cl)ccc1CN1CCC(O)CC1 [Compound 681, 2-((3′-Chloro-2′-(2-chloro-3-(5-((4-hydroxypiperidin-1-yl)methyl)-6-methoxypyridin-2-yl)phenyl)-6-methoxy-[2,4′-bipyridin]-5-yl)methyl)-2,6-diazaspiro[3.4]octan-7-one] | 1.07 nM | 23.4 nM |
